28 compounds from patent US8778966B2, “Quinolinone derivatives as PARP and tank inhibitors” (Janssen Pharmaceutica, NV, priority 2007, dated 2014) can be followed below.

SMILES strings stand for the structures.

For this experiment, the target named is T1, TANK-2 enzyme (Homo sapiens, UniProt Q9H2K2).
T1 construct: made in house
T1 sequence (Q9H2K2 1-1166): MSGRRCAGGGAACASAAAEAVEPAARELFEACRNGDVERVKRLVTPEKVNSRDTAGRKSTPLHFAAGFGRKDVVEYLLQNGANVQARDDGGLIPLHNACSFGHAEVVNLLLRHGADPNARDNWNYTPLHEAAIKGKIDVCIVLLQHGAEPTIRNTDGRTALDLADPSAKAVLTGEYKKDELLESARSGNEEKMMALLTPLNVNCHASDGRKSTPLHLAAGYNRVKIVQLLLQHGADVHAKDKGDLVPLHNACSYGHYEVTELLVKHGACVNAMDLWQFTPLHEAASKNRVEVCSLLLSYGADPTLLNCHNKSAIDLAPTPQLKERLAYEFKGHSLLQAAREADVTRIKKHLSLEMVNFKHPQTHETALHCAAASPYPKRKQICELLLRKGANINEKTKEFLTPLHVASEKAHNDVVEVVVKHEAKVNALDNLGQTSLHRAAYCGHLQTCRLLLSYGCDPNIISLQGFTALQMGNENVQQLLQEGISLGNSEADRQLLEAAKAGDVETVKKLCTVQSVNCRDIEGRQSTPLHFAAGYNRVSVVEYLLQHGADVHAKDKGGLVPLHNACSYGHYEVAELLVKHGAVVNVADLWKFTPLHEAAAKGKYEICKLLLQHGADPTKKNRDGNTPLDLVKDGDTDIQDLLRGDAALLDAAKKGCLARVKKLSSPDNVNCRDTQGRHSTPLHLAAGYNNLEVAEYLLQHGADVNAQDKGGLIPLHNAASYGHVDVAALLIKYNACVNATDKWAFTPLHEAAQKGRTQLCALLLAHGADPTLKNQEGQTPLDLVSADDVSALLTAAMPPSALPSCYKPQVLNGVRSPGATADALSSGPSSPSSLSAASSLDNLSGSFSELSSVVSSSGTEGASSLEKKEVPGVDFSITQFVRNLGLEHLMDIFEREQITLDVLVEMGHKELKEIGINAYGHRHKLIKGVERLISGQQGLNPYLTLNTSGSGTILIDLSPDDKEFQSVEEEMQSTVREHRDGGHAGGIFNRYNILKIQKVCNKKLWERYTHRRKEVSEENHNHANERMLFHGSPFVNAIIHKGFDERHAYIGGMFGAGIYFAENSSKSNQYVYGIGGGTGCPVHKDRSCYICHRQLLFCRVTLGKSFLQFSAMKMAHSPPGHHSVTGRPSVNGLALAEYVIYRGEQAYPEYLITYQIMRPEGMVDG
In words: In vitro Scintillation Proximity Assay (SPA) for TANK-2 inhibitory activity. Type of experiment: biochemical. To be noted: read-out: in vitro SPA assay TANK-2 pIC50 (converted). In short, it runs like this:
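Results are pIC50 values, with IC50 interpolated linearly around 50% of blank-subtracted control cpm. They come from a scintillation proximity read of TANK-2 (8 μg/ml) self-modification with [3H]-NAD+/NAD, incubated 120 min at room temperature in pH 7.4 Tris buffer containing MgCl2 and DTT. Compounds were first screened at 10^−5 M.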
Regarding `Cc1cc2ccc(C(C)(C#N)Cc3cccc(Oc4ccccn4)c3)cc2[nH]c1=O` (stereo not shown) [Compound 304], the IC50 is 1000 nM.

On to `CCOc1cc(N(C)C)nc(CC(C)(C#N)c2ccc3cc(CC)c(=O)[nH]c3c2)n1` (stereo not shown) [Compound 312], for which the IC50 is 100 nM.

As for `CCOc1cc(C#N)nc(CC(C)(C#N)c2ccc3cc(CC)c(=O)[nH]c3c2)n1` (stereo not shown) [Compound 315], the IC50 was 100 nM.

`CCc1cc2ccc(C(C#N)(CC)Cc3nc(C#N)cc(OC)n3)cc2[nH]c1=O` (stereo not shown) [Compound 316]: the IC50 is 126 nM.

With `CCc1cc2ccc(C(C#N)(CC)Cc3nc(OC)cc(OC)n3)cc2[nH]c1=O` (stereo not shown) [Compound 321], the IC50 was 158 nM.

As to `CCc1cc2ccc(C(C)(C#N)Cc3ccnc(C#N)c3)cc2[nH]c1=O` (stereo not shown) [Compound 324], the IC50 is 20 nM.

In the case of `CCc1cc2ccc(C(C)(C#N)Cc3cc(C)nc(Cl)c3)cc2[nH]c1=O` (stereo not shown) [Compound 326], the IC50 is 398 nM.

As to `CCc1cc2ccc(C(C)(C#N)Cc3cc(C)nc(C#N)c3)cc2[nH]c1=O` (stereo not shown) [Compound 328], the IC50 was 20 nM.

As to `CCc1cc2ccc(C(C)(C#N)Cc3ccnc(F)c3)cc2[nH]c1=O` (stereo not shown) [Compound 330], the IC50 was 398 nM.

Regarding `CCc1cc2ccc(C(C)(C#N)Cc3cccc(F)n3)cc2[nH]c1=O` (stereo not shown) [Compound 331], the IC50 was 79.4 nM.

For the compound `CCc1cc2ccc([C@](C)(C#N)Cc3cc(F)cc(F)c3)cc2[nH]c1=O` [Compound 333], the IC50 is 79.4 nM.

For the compound `CCc1cc2ccc(C(C)(C#N)Cc3ccc(C(F)(F)F)nc3C)cc2[nH]c1=O` (stereo not shown) [Compound 340], the IC50 was 794 nM.

Take `CCc1cc2ccc(C(C)(C#N)Cc3ccnc(Cl)c3)cc2[nH]c1=O` (stereo not shown) [Compound 341]: the IC50 was 79.4 nM.

Regarding `CCc1cc2ccc(C(C#N)(CC)Cc3cccc(C#N)n3)cc2[nH]c1=O` (stereo not shown) [Compound 342], the IC50 is 39.8 nM.

For the compound `CCc1cc2ccc(C(C)(C#N)CCOc3ccnc(SC)n3)cc2[nH]c1=O` (stereo not shown) [Compound 348], the IC50 was 200 nM.

Turning to `CCc1cc2ccc(C(C)(C#N)CCOc3ncc(Br)cn3)cc2[nH]c1=O` (stereo not shown) [Compound 349], the IC50 is 200 nM.

With `CCc1cc2ccc(C(C)(C#N)Cc3nc(C)cc(OC)n3)cc2[nH]c1=O` (stereo not shown) [Compound 371], the IC50 was 126 nM.

For the compound `CCc1cc2ccc(C(C)(C#N)CN3CCN(c4ncc(Br)cn4)CC3)cc2[nH]c1=O` (stereo not shown) [Compound 374], the IC50 was 501 nM.

Regarding `CCc1cc2ccc(C(C)(C#N)CN3CCc4ccccc4C3)cc2[nH]c1=O` (stereo not shown) [Compound 376], the IC50 was 200 nM.

For the compound `Cc1cc2ccc([C@@](C)(C#N)[C@@H]3CCCc4ccccc43)cc2[nH]c1=O` [Compound 382], the IC50 was 2000 nM.

Consider `CCc1cc2ccc(C(C#N)(CC)Cc3cccc(CN)c3)cc2[nH]c1=O` (stereo not shown) [Compound 390], for which the IC50 was 316 nM.

Take `CCc1cc2ccc([C@](C)(C#N)C[C@H]3Cc4ccccc4O3)cc2[nH]c1=O` [Compound 397]: the IC50 is 100 nM.

On to `CCc1cc2ccc(C(C)(C#N)CC3Oc4ccccc4O3)cc2[nH]c1=O` (stereo not shown) [Compound 398], for which the IC50 was 501 nM.

On to `CCc1cc2ccc(C(C)(C#N)Cc3cc(F)cc(F)c3)cc2[nH]c1=O` (stereo not shown) [Compound 402], for which the IC50 is 126 nM.

As for `CCc1cc2ccc(C(C#N)(CC)C3CCc4ccc(OC)cc43)cc2[nH]c1=O` (stereo not shown) [Compound 403], the IC50 was 2510 nM.

As for `Cc1cc2ccc([C@@](C)(C#N)[C@H]3CCc4ccc(Br)cc43)cc2[nH]c1=O` [Compound 405], the IC50 was 5010 nM.

On to `Cc1cc2ccc([C@](C)(C#N)[C@@H]3CCc4ccc(Br)cc43)cc2[nH]c1=O` [Compound 406], for which the IC50 was 5010 nM.

As to `Cc1cc2ccc([C@](C)(C#N)[C@H]3CCc4ccc(Br)cc43)cc2[nH]c1=O` [Compound 407], the IC50 is 6310 nM.
